Source: patent US9663473B2 (Actelion Pharmaceuticals Ltd, priority 2013, dated 2017)

target: T1, recombinant human ALX receptor (Homo sapiens, UniProt P25090); assay: Intracellular calcium measurements (FLIPR), ALX receptor agonistic activity; assay type: cell-based; details: HEK293-hALXR-Gα16 cells, Fluo-4 calcium signal, normalized to WKYMVm 10 nM
T1 construct: expressed in transfected cells; host or cells: HEK293 (HEK293-hALXR-Gα16)
T1 sequence (P25090 1-351): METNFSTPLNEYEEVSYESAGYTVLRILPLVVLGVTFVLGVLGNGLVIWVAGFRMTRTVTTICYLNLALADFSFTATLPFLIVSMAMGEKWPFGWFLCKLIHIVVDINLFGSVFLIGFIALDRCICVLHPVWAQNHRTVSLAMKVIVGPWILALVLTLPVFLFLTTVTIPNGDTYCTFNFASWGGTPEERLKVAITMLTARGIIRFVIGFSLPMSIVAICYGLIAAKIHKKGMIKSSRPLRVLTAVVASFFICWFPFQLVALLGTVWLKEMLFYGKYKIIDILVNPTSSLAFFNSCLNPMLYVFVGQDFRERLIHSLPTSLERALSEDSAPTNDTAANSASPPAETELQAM
Procedure, shortened: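 HEK293 cells co-expressing human ALX receptor and Gα16 were loaded with 1 μM Fluo-4 AM for 60 min at 37° C., then exposed to serially diluted compounds on FLIPR Tetra. Peak fluorescence above baseline (ex 488/em 540 nm) was normalized to 10 nM WKYMVm as high control.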

Structure (SMILES)	EC50 [nM]
COc1ccc(CC(NC(=O)NC23CCC(O)(CC2)CC3)c2nc3ccccc3[nH]2)c(F)c1 (single isomer, unassigned; ent-1) [Example 261, 1-(1-(1H-Benzo[d]imidazol-2-yl)-2-(2-fluoro-4-methoxyphenyl)ethyl)-3-(4-hydroxybicyclo[2.2.2]octan-1-yl)urea (ent-1)]	3.2
CC1(O)CCC(NC(=O)NC(Cc2ccc(Br)cc2F)c2nc3ccccc3[nH]2)CC1 (single isomer, unassigned; ent-1) [Example 264, 1-(1-(1H-Benzo[d]imidazol-2-yl)-2-(4-bromo-2-fluorophenyl)ethyl)-3-(trans-4-hydroxy-4-methylcyclohexyl)urea (ent-1)]	9
COc1ccc(CC(NC(=O)NC23CCC(O)(CC2)CC3)c2nc3ccccc3[nH]2)c(F)c1F (single isomer, unassigned; ent-1) [Example 266, 1-(1-(1H-Benzo[d]imidazol-2-yl)-2-(2,3-difluoro-4-methoxyphenyl)ethyl)-3-(4-hydroxybicyclo[2.2.2]octan-1-yl)urea (ent-1)]	3.3
COc1ccc(CC(NC(=O)NC2CCC(C)(O)CC2)c2nc3ccccc3[nH]2)cc1F (single isomer, unassigned; ent-1) [Example 308, 1-(1-(1H-Benzo[d]imidazol-2-yl)-2-(3-fluoro-4-methoxyphenyl)ethyl)-3-(trans-4-hydroxy-4-methylcyclohexyl)urea (ent-1)]	2.7
COc1ccc(CC(NC(=O)N[C@H]2CC[C@H](O)CC2)c2nc3ccccc3[nH]2)cc1F (single isomer, unassigned; ent-1) [Example 309, 1-(1-(1H-Benzo[d]imidazol-2-yl)-2-(3-fluoro-4-methoxyphenyl)ethyl)-3-(trans-4-hydroxycyclohexyl)urea (ent-1)]	3.7
COc1ccc(CC(NC(=O)NC2CCC(C)(O)CC2)c2nc3ccccc3[nH]2)c(F)c1 (single isomer, unassigned; ent-1) [Example 311, 1-(1-(1H-Benzo[d]imidazol-2-yl)-2-(2-fluoro-4-methoxyphenyl)ethyl)-3-(trans-4-hydroxy-4-methylcyclohexyl)urea (ent-1)]	3.6
COc1c(F)c(F)c(CC(NC(=O)N[C@H]2CC[C@H](O)CC2)c2nc3ccccc3[nH]2)c(F)c1F (single isomer, unassigned; ent-1) [Example 312, 1-(1-(1H-Benzo[d]imidazol-2-yl)-2-(2,3,5,6-tetrafluoro-4-methoxyphenyl)ethyl)-3-(trans-4-hydroxycyclohexyl)urea (ent-1)]	22
O=C(NC(Cc1ccc(Br)cc1F)c1nc2ccccc2[nH]1)N[C@H]1CC[C@H](O)CC1 (single isomer, unassigned; ent-1) [Example 313, 1-(1-(1H-Benzo[d]imidazol-2-yl)-2-(4-bromo-2-fluorophenyl)ethyl)-3-(trans-4-hydroxycyclohexyl)urea (ent-1)]	2.4
COc1cc(F)c(CC(NC(=O)N[C@H]2CC[C@H](O)CC2)c2nc3ccccc3[nH]2)c(F)c1 (single isomer, unassigned; ent-1) [Example 316, 1-(1-(1H-Benzo[d]imidazol-2-yl)-2-(2,6-difluoro-4-methoxyphenyl)ethyl)-3-(trans-4-hydroxycyclohexyl)urea (ent-1)]	3.2
COc1cc(F)c(CC(NC(=O)N[C@H]2CC[C@H](O)CC2)c2nc3ccccc3[nH]2)cc1F (single isomer, unassigned; ent-1) [Example 356, 1-(1-(1H-Benzo[d]imidazol-2-yl)-2-(2,5-difluoro-4-methoxyphenyl)ethyl)-3-(trans-4-hydroxycyclohexyl)urea (ent-1)]	5.5
O=C(NC(Cc1ccc(C(F)(F)F)cc1F)c1nc2cc(F)ccc2[nH]1)NC12CCC(O)(CC1)CC2 (single isomer, unassigned; ent-1) [Example 361, 1-(1-(5-Fluoro-1H-benzo[d]imidazol-2-yl)-2-(2-fluoro-4-(trifluoromethyl)phenyl)ethyl)-3-(4-hydroxybicyclo[2.2.2]octan-1-yl)urea (ent-1)]	3.9
O=C(NC(Cc1ccc(C(F)(F)F)cc1F)c1nc2ccccc2[nH]1)NC12CCC(O)(CC1)CC2 (single isomer, unassigned; ent-1) [Example 362, 1-(1-(1H-Benzo[d]imidazol-2-yl)-2-(2-fluoro-4-(trifluoromethyl)phenyl)ethyl)-3-(4-hydroxybicyclo[2.2.2]octan-1-yl)urea (ent-1)]	27
O=C(NC(Cc1ccc(C(F)(F)F)cc1F)c1nc2cc(F)ccc2[nH]1)N[C@H]1CC[C@H](O)CC1 (single isomer, unassigned; ent-1) [Example 363, 1-(1-(5-Fluoro-1H-benzo[d]imidazol-2-yl)-2-(2-fluoro-4-(trifluoromethyl)phenyl)ethyl)-3-(trans-4-hydroxycyclohexyl)urea (ent-1)]	5.6
CC(F)(F)c1ccc(CC(NC(=O)N[C@H]2CC[C@H](O)CC2)c2nc3ccccc3[nH]2)cc1 (single isomer, unassigned; ent-1) [Example 394, 1-(1-(1H-Benzo[d]imidazol-2-yl)-2-(4-(1,1-difluoroethyl)phenyl)ethyl)-3-(trans-4-hydroxycyclohexyl)urea (ent-1)]	4.7

Stronger by EC50, values ahead:

EC50 [nM]	Structure (SMILES)
1.8	CCc1ccc(CC(NC(=O)N[C@H]2CC[C@H](O)CC2)c2nc3cc(F)ccc3[nH]2)cc1 (single isomer, unassigned; ent-1) [Example 368, 1-(2-(4-Ethylphenyl)-1-(5-fluoro-1H-benzo[d]imidazol-2-yl)ethyl)-3-(trans-4-hydroxycyclohexyl)urea (ent-1)]
1.7	COc1ccc(CC(NC(=O)N[C@H]2CC[C@H](O)CC2)c2nc3ccccc3[nH]2)c(F)c1F (single isomer, unassigned; ent-1) [Example 365, 1-(1-(1H-Benzo[d]imidazol-2-yl)-2-(2,3-difluoro-4-methoxyphenyl)ethyl)-3-(trans-4-hydroxycyclohexyl)urea (ent-1)]
1.4	COc1ccc(CC(NC(=O)NC23CCC(O)(CC2)CC3)c2nc3ccc(F)cc3[nH]2)c(F)c1 (single isomer, unassigned; ent-1) [Example 263, 1-(1-(6-Fluoro-1H-benzo[d]imidazol-2-yl)-2-(2-fluoro-4-methoxyphenyl)ethyl)-3-(4-hydroxybicyclo[2.2.2]octan-1-yl)urea (ent-1)]
1.2	COc1ccc(CC(NC(=O)N[C@H]2CC[C@H](O)CC2)c2nc3ccc(F)cc3[nH]2)cc1F (single isomer, unassigned; ent-1) [Example 318, 1-(1-(6-Fluoro-1H-benzo[d]imidazol-2-yl)-2-(3-fluoro-4-methoxyphenyl)ethyl)-3-(trans-4-hydroxycyclohexyl)urea (ent-1)]
1	COc1ccc(CC(NC(=O)NC23CCC(O)(CC2)CC3)c2nc3ccc(F)cc3[nH]2)cc1F (single isomer, unassigned; ent-1) [Example 319, 1-(1-(6-Fluoro-1H-benzo[d]imidazol-2-yl)-2-(3-fluoro-4-methoxyphenyl)ethyl)-3-(4-hydroxybicyclo[2.2.2]octan-1-yl)urea (ent-1)]
1	COc1cc(F)c(CC(NC(=O)NC23CCC(O)(CC2)CC3)c2nc3ccccc3[nH]2)cc1F (single isomer, unassigned; ent-1) [Example 357, 1-(1-(1H-Benzo[d]imidazol-2-yl)-2-(2,5-difluoro-4-methoxyphenyl)ethyl)-3-(4-hydroxybicyclo[2.2.2]octan-1-yl)urea (ent-1)]
0.5	COc1cc(F)c(CC(NC(=O)NC23CCC(O)(CC2)CC3)c2nc3ccccc3[nH]2)c(F)c1 (single isomer, unassigned; ent-1) [Example 259, 1-(1-(1H-Benzo[d]imidazol-2-yl)-2-(2,6-difluoro-4-methoxyphenyl)ethyl)-3-(4-hydroxybicyclo[2.2.2]octan-1-yl)urea (ent-1)]
0.4	COc1ccc(CC(NC(=O)N[C@H]2CC[C@H](O)CC2)c2nc3ccc(F)cc3[nH]2)c(F)c1 (single isomer, unassigned; ent-1) [Example 260, 1-(1-(6-Fluoro-1H-benzo[d]imidazol-2-yl)-2-(2-fluoro-4-methoxyphenyl)ethyl)-3-(trans-4-hydroxycyclohexyl)urea (ent-1)]
0.4	COc1cc(F)c(CC(NC(=O)N[C@H]2CC[C@H](O)CC2)c2nc3cc(F)ccc3[nH]2)c(F)c1 (single isomer, unassigned; ent-1) [Example 366, 1-(2-(2,6-Difluoro-4-methoxyphenyl)-1-(5-fluoro-1H-benzo[d]imidazol-2-yl)ethyl)-3-(trans-4-hydroxycyclohexyl)urea (ent-1)]
0.4	COc1ccc(CC(NC(=O)N[C@H]2CC[C@H](O)CC2)c2nc3cc(F)ccc3[nH]2)c(F)c1F (single isomer, unassigned; ent-1) [Example 375, 1-(2-(2,3-Difluoro-4-methoxyphenyl)-1-(5-fluoro-1H-benzo[d]imidazol-2-yl)ethyl)-3-(trans-4-hydroxycyclohexyl)urea (ent-1)]
0.1	COc1cc(F)c(CC(NC(=O)NC23CCC(O)(CC2)CC3)c2nc3ccc(F)cc3[nH]2)c(F)c1 (single isomer, unassigned; ent-1) [Example 367, 1-(2-(2,6-Difluoro-4-methoxyphenyl)-1-(6-fluoro-1H-benzo[d]imidazol-2-yl)ethyl)-3-(4-hydroxybicyclo[2.2.2]octan-1-yl)urea (ent-1)]
